Laboratory results as given in US11542235B2, “Herbicidal 3-azaspiro[5.5] undecane-8, 10-dione compounds” (SYNGENTA PARTICIPATIONS AG, priority 2018, dated 2023).

Assays:
Type in all cases: in vivo
Lolium perenne (LOLPE) = experiment: Glasshouse herbicidal test, pre- and post-emergence, Lolium perenne; conditions: 250 g/h, evaluated after 13 days, five point scale; for percentage damage caused to the plant, LOLPE POST: post-emergence; for percentage damage caused to the plant, LOLPE PRE: pre-emergence
Method: (§1) Seeds of a variety of test species are sown in standard soil in pots (Lolium perenne (LOLPE), Setaria faberi (SETFA), Alopecurus myosuroides (ALOMY), Echinochloa crus-galli (ECHCG), Avena fatua (AVEFA)). After cultivation for one day (pre-emergence) or after 8 days cultivation (post-emergence) under controlled conditions in a glasshouse (at 24/16° C., day/night; 14 hours light; 65% humidity), the plants are sprayed with an aqueous spray solution derived from the formulation of the technical active ingredient in acetone/water (50:50) solution containing 0.5% Tween 20 (polyoxyethelyene sorbitan monolaurate, CAS RN 9005-64-5). Compounds are applied at […]. The test plants are then grown in a glasshouse under controlled conditions in a glasshouse (at 24/16° C., day/night; 14 hours light; 65% humidity) and watered twice daily. After 13 days for pre and post-emergence, the test is evaluated for the percentage damage caused to the plant. The biological activities are shown in the following table on a five point scale (5=80-100%; 4=60-79%; 3=40-59%; 2=20-39%; 1=0-19%).

[1] = tested on: Alopecurus myosuroides (ALOMY); experiment: Glasshouse herbicidal test, pre- and post-emergence, Alopecurus myosuroides; conditions: 250 g/h, evaluated after 13 days, five point scale; for percentage damage caused to the plant, ALOMY POST: post-emergence; for percentage damage caused to the plant, ALOMY PRE: pre-emergence
Method: as §1

[2] = tested on: Echinochloa crus-galli (ECHCG); experiment: Glasshouse herbicidal test, pre- and post-emergence, Echinochloa crus-galli; conditions: 250 g/h, evaluated after 13 days, five point scale; for percentage damage caused to the plant, ECHCG POST: post-emergence; for percentage damage caused to the plant, ECHCG PRE: pre-emergence
Method: as §1

Setaria faberi (SETFA) = experiment: Glasshouse herbicidal test, pre- and post-emergence, Setaria faberi; conditions: 250 g/h, evaluated after 13 days, five point scale; for percentage damage caused to the plant, SETFA POST: post-emergence; for percentage damage caused to the plant, SETFA PRE: pre-emergence
Method: as §1

Avena fatua (AVEFA) = experiment: Glasshouse herbicidal test, pre- and post-emergence, Avena fatua; conditions: 250 g/h, evaluated after 13 days, five point scale; for percentage damage caused to the plant, AVEFA POST: post-emergence; for percentage damage caused to the plant, AVEFA PRE: pre-emergence
Method: as §1

CC#Cc1cc(OC)c(C2C(=O)CC3(CCN(OC)CC3)CC2=O)c(OC)c1 [Compound A4]
5 (5=80-100%): percentage damage caused to the plant, LOLPE POST (Lolium perenne (LOLPE)) | percentage damage caused to the plant, LOLPE PRE (Lolium perenne (LOLPE)) | percentage damage caused to the plant, ALOMY POST [1] | percentage damage caused to the plant, ALOMY PRE [1] | percentage damage caused to the plant, ECHCG POST [2] | percentage damage caused to the plant, ECHCG PRE [2] | percentage damage caused to the plant, SETFA POST (Setaria faberi (SETFA)) | percentage damage caused to the plant, SETFA PRE (Setaria faberi (SETFA)) | percentage damage caused to the plant, AVEFA POST (Avena fatua (AVEFA)) | percentage damage caused to the plant, AVEFA PRE (Avena fatua (AVEFA))

CC#Cc1cc(C)c(C2C(=O)CC3(CCN(C(=O)C(F)(F)F)CC3)CC2=O)c(C)c1 [Compound A5]
5 (5=80-100%): percentage damage caused to the plant, LOLPE POST (Lolium perenne (LOLPE)) | percentage damage caused to the plant, LOLPE PRE (Lolium perenne (LOLPE)) | percentage damage caused to the plant, ALOMY POST [1] | percentage damage caused to the plant, ALOMY PRE [1] | percentage damage caused to the plant, ECHCG POST [2] | percentage damage caused to the plant, ECHCG PRE [2] | percentage damage caused to the plant, SETFA POST (Setaria faberi (SETFA)) | percentage damage caused to the plant, SETFA PRE (Setaria faberi (SETFA)) | percentage damage caused to the plant, AVEFA POST (Avena fatua (AVEFA)) | percentage damage caused to the plant, AVEFA PRE (Avena fatua (AVEFA))

CC#Cc1cc(C)c(C2C(=O)CC3(CCN(C(=O)C(F)F)CC3)CC2=O)c(C)c1 [Compound A6]
5 (5=80-100%): percentage damage caused to the plant, LOLPE POST (Lolium perenne (LOLPE)) | percentage damage caused to the plant, LOLPE PRE (Lolium perenne (LOLPE)) | percentage damage caused to the plant, ALOMY POST [1] | percentage damage caused to the plant, ALOMY PRE [1] | percentage damage caused to the plant, ECHCG POST [2] | percentage damage caused to the plant, ECHCG PRE [2] | percentage damage caused to the plant, SETFA POST (Setaria faberi (SETFA)) | percentage damage caused to the plant, SETFA PRE (Setaria faberi (SETFA)) | percentage damage caused to the plant, AVEFA POST (Avena fatua (AVEFA)) | percentage damage caused to the plant, AVEFA PRE (Avena fatua (AVEFA))

CC#Cc1cc(C)c(C2C(=O)CC3(CCN(CC(F)(F)F)CC3)CC2=O)c(C)c1 [Compound A7]
5 (5=80-100%): percentage damage caused to the plant, LOLPE POST (Lolium perenne (LOLPE)) | percentage damage caused to the plant, LOLPE PRE (Lolium perenne (LOLPE)) | percentage damage caused to the plant, ALOMY POST [1] | percentage damage caused to the plant, ALOMY PRE [1] | percentage damage caused to the plant, ECHCG POST [2] | percentage damage caused to the plant, ECHCG PRE [2] | percentage damage caused to the plant, SETFA POST (Setaria faberi (SETFA)) | percentage damage caused to the plant, SETFA PRE (Setaria faberi (SETFA)) | percentage damage caused to the plant, AVEFA POST (Avena fatua (AVEFA)) | percentage damage caused to the plant, AVEFA PRE (Avena fatua (AVEFA))

CC#Cc1cc(C)c(C2C(=O)CC3(CCN(OC)CC3)CC2=O)c(C)c1 [Compound A8]
5 (5=80-100%): percentage damage caused to the plant, LOLPE POST (Lolium perenne (LOLPE)) | percentage damage caused to the plant, LOLPE PRE (Lolium perenne (LOLPE)) | percentage damage caused to the plant, ALOMY POST [1] | percentage damage caused to the plant, ALOMY PRE [1] | percentage damage caused to the plant, ECHCG POST [2] | percentage damage caused to the plant, ECHCG PRE [2] | percentage damage caused to the plant, SETFA POST (Setaria faberi (SETFA)) | percentage damage caused to the plant, SETFA PRE (Setaria faberi (SETFA)) | percentage damage caused to the plant, AVEFA POST (Avena fatua (AVEFA)) | percentage damage caused to the plant, AVEFA PRE (Avena fatua (AVEFA))

CC#Cc1cc(C)c(C2C(=O)CC3(CCN(C(=O)C(C)C)CC3)CC2=O)c(C)c1 [Compound A11]
5 (5=80-100%): percentage damage caused to the plant, LOLPE POST (Lolium perenne (LOLPE)) | percentage damage caused to the plant, LOLPE PRE (Lolium perenne (LOLPE)) | percentage damage caused to the plant, ALOMY POST [1] | percentage damage caused to the plant, ALOMY PRE [1] | percentage damage caused to the plant, ECHCG POST [2] | percentage damage caused to the plant, ECHCG PRE [2] | percentage damage caused to the plant, SETFA POST (Setaria faberi (SETFA)) | percentage damage caused to the plant, SETFA PRE (Setaria faberi (SETFA)) | percentage damage caused to the plant, AVEFA POST (Avena fatua (AVEFA)) | percentage damage caused to the plant, AVEFA PRE (Avena fatua (AVEFA))

CC#Cc1cc(C)c(C2C(=O)CC3(CCN(C(=O)C(C)(C)C)CC3)CC2=O)c(C)c1 [Compound A12]
5 (5=80-100%): percentage damage caused to the plant, LOLPE POST (Lolium perenne (LOLPE)) | percentage damage caused to the plant, LOLPE PRE (Lolium perenne (LOLPE)) | percentage damage caused to the plant, ALOMY POST [1] | percentage damage caused to the plant, ALOMY PRE [1] | percentage damage caused to the plant, ECHCG POST [2] | percentage damage caused to the plant, ECHCG PRE [2] | percentage damage caused to the plant, SETFA POST (Setaria faberi (SETFA)) | percentage damage caused to the plant, SETFA PRE (Setaria faberi (SETFA)) | percentage damage caused to the plant, AVEFA POST (Avena fatua (AVEFA)) | percentage damage caused to the plant, AVEFA PRE (Avena fatua (AVEFA))

CC#Cc1cc(OC)c(C2C(=O)CC3(CCN(C(C)=O)CC3)CC2=O)c(OC)c1 [Compound A14]
5 (5=80-100%): percentage damage caused to the plant, LOLPE POST (Lolium perenne (LOLPE)) | percentage damage caused to the plant, LOLPE PRE (Lolium perenne (LOLPE)) | percentage damage caused to the plant, ALOMY POST [1] | percentage damage caused to the plant, ALOMY PRE [1] | percentage damage caused to the plant, ECHCG POST [2] | percentage damage caused to the plant, ECHCG PRE [2] | percentage damage caused to the plant, SETFA POST (Setaria faberi (SETFA)) | percentage damage caused to the plant, SETFA PRE (Setaria faberi (SETFA)) | percentage damage caused to the plant, AVEFA POST (Avena fatua (AVEFA)) | percentage damage caused to the plant, AVEFA PRE (Avena fatua (AVEFA))

CC#Cc1cc(C)c(C2C(=O)CC3(CCN(C(C)=O)CC3)CC2=O)c(OC)c1 [Compound A15]
5 (5=80-100%): percentage damage caused to the plant, LOLPE POST (Lolium perenne (LOLPE)) | percentage damage caused to the plant, LOLPE PRE (Lolium perenne (LOLPE)) | percentage damage caused to the plant, ALOMY POST [1] | percentage damage caused to the plant, ALOMY PRE [1] | percentage damage caused to the plant, ECHCG POST [2] | percentage damage caused to the plant, ECHCG PRE [2] | percentage damage caused to the plant, SETFA POST (Setaria faberi (SETFA)) | percentage damage caused to the plant, SETFA PRE (Setaria faberi (SETFA)) | percentage damage caused to the plant, AVEFA POST (Avena fatua (AVEFA)) | percentage damage caused to the plant, AVEFA PRE (Avena fatua (AVEFA))
